Results on 25 molecules are retold here after the supplement of paper PMC12613149.

Structures can show the parent of a compound that is named as a salt.

Data set [1] in a line: collision cross section (TIMS, N2 drift gas) of the primary ion; higher = larger gas-phase ion size.
The nature of data set [2]: reversed-phase LC retention time (C18, 15 min MeOH gradient); higher = more hydrophobic / later elution.
The mark [3] stands for this setting: ionization mode: ESI-, ion species: [M-H]-.
Setting [4] is: ionization mode: ESI+, ion species: [M+H]+.
Setting [5] is: ionization mode: ESI+, ion species: [M]+.

With `CC(C)(C)c1cc([N+](=O)[O-])cc([N+](=O)[O-])c1O` [Dinoterb], the collision cross section in data set [1] (setting [3]) is given as 149.2 Å². For the same molecule, the “reversed-phase LC retention time” value in data set [2] (setting [3]) amounted to 12.5 min.

Consider `CCCCC(CC)COC(=O)CC(C(=O)OCC(CC)CCCC)S(=O)(=O)O` (stereo unspecified) [Dioctylsulfosuccinate], for which the collision cross section in data set [1] (setting [4]) is given as 222.09 Å²; in data set [1] (setting [3]) it was 208.23 Å². In addition, the “reversed-phase LC retention time” value in data set [2] (setting [4]) and in data set [2] (setting [3]) was 17.1 min throughout.

For `CN(C)CCOC(c1ccccc1)c1ccccc1` [Diphenhydramine], the collision cross section in data set [1] (setting [4]) amounted to 162.95 Å². In addition, the “reversed-phase LC retention time” value in data set [2] (setting [4]) came to 11.6 min.

Regarding `O=P(O)(Oc1ccccc1)Oc1ccccc1` [Diphenylphosphate], the collision cross section in data set [1] (setting [4]) amounted to 155.07 Å²; in data set [1] (setting [3]), 152.14 Å². Moreover, the “reversed-phase LC retention time” value in data set [2] (setting [4]) was 17.6 min; in data set [2] (setting [3]), 10.8 min.

In data set [1] (setting [4]), `CCN(CCC#N)c1ccc(N=Nc2c(Br)cc([N+](=O)[O-])cc2Br)cc1` [Disperse Orange 61] yielded a collision cross section of 202.21 Å². Further, the “reversed-phase LC retention time” value in data set [2] (setting [4]) was determined as 16.8 min.

In data set [1] (setting [4]), `CCCCCCCCCCCOC(=O)c1ccccc1C(=O)OCCCCCCCCCCC` [Diundecylphthalate] registered a collision cross section of 241.8 Å². Also, in data set [2] (setting [4]), the “reversed-phase LC retention time” value worked out at 20.8 min.

As for `O=C1CCCCCCCCCCCN1` [Dodecane-12-lactam], in data set [1] (setting [4]), the collision cross section is recorded as 148.39 Å². The “reversed-phase LC retention time” value in data set [2] (setting [4]) was 13.9 min.

With `O=C(O)CCCCCCCCCCC(=O)O` [Dodecanedioic acid], the figures for the collision cross section in data set [1] (setting [4]) and in data set [1] (setting [3]) were 156.8 Å² and 153.38 Å², respectively. The “reversed-phase LC retention time” value in data set [2] (setting [4]) was 14.7 min; in data set [2] (setting [3]), 8.22 min.

In data set [1] (setting [3]), `CCCCCCCCCCCCOS(=O)(=O)O` [Dodecyl sulfate] came in with a collision cross section of 166.94 Å². The “reversed-phase LC retention time” value in data set [2] (setting [3]) came to 16.3 min.

In data set [1] (setting [3]), `CCCCCCCCCCCCc1ccccc1S(=O)(=O)O` [Dodecylbenzenesulfonic acid] registered a collision cross section of 185.13 Å². Besides, the “reversed-phase LC retention time” value in data set [2] (setting [3]) came out at 17.3 min.

`CCCCCCCCCCCC[N+](C)(C)C` [Dodecyltrimethylammonium] displayed a collision cross section in data set [1] (setting [5]) of 176.31 Å². Further, in data set [2] (setting [5]), the “reversed-phase LC retention time” value came out at 15.2 min.

The molecule `CC1CN(C2CCCCCCCCCCC2)CC(C)O1` (stereo unspecified) [Dodemorph] gave a collision cross section in data set [1] (setting [4]) of 175.75 Å². The “reversed-phase LC retention time” value in data set [2] (setting [4]) came to 13.3 min.

As to `C[C@H]1c2cccc(O)c2C(=O)C2=C(O)[C@]3(O)C(=O)C(C(N)=O)=C(O)[C@@H](N(C)C)[C@@H]3[C@@H](O)[C@@H]21` [Doxycycline], in data set [1] (setting [3]), the collision cross section is listed as 197.93 Å². For the same molecule, the “reversed-phase LC retention time” value in data set [2] (setting [3]) stood at 10.2 min.

For the molecule `Cc1ccc(O)c(-n2nc3ccccc3n2)c1` [Drometrizole], the collision cross section in data set [1] (setting [4]) is listed as 148.63 Å²; in data set [1] (setting [3]), 154.28 Å². Also, the “reversed-phase LC retention time” value in data set [2] (setting [4]) came to 16.7 min; in data set [2] (setting [3]), 17.1 min.

For `CNCCC(Oc1cccc2ccccc12)c1cccs1` (stereo unspecified) [Duloxetine], the collision cross section in data set [1] (setting [4]) is given as 171.35 Å². Moreover, the “reversed-phase LC retention time” value in data set [2] (setting [4]) came out at 13 min.

`CC(=O)[C@H]1CC[C@H]2[C@@H]3C=CC4=CC(=O)CC[C@@]4(C)[C@@H]3CC[C@]12C` [Dydrogesterone] showed a collision cross section in data set [1] (setting [4]) of 177.44 Å². Moreover, the “reversed-phase LC retention time” value in data set [2] (setting [4]) was 15.1 min.

Take `C/C=C1\N(C)C(C)CC1(c1ccccc1)c1ccccc1` (stereo unspecified) [EDDP]: in data set [1] (setting [4]), the collision cross section was determined as 166.21 Å². In data set [2] (setting [4]), the “reversed-phase LC retention time” value came out at 11.5 min.

In the case of `O=C1Nc2ccc(Cl)cc2C(C#CC2CC2)(C(F)(F)F)O1` (stereo unspecified) [Efavirenz], the collision cross section was determined as 168.93 Å² in data set [1] (setting [4]) and 167.59 Å² in data set [1] (setting [3]). Further, the entries for the “reversed-phase LC retention time” value in data set [2] (setting [4]) and in data set [2] (setting [3]) were 15.4 min and 15.8 min, respectively.

Take `CC[C@H](C)[C@H]1O[C@]2(C=C[C@@H]1C)C[C@@H]1C[C@@H](C/C=C(\C)[C@@H](O[C@H]3C[C@H](OC)[C@@H](O[C@H]4C[C@H](OC)[C@@H](NC)[C@H](C)O4)[C@H](C)O3)[C@@H](C)/C=C/C=C3\CO[C@@H]4[C@H](O)C(C)=C[C@@H](C(=O)O1)[C@]34O)O2` [Emamectin B1a]: the values for the collision cross section in data set [1] (setting [4]) and in data set [1] (setting [3]) were 283.49 Å² and 296.31 Å², respectively. In addition, the “reversed-phase LC retention time” value turned out to be 17 min in data set [2] (setting [4]) and 18.9 min in data set [2] (setting [3]).

Molecule `Nc1nc(=O)n([C@@H]2CS[C@H](CO)O2)cc1F` [Emtricitabine] came in with a collision cross section in data set [1] (setting [4]) of 146.78 Å². In addition, in data set [2] (setting [4]), the “reversed-phase LC retention time” value is 5.75 min.

In the case of `CCOC(=O)[C@H](CCc1ccccc1)N[C@@H](C)C(=O)N1CCC[C@H]1C(=O)O` [Enalapril], the collision cross section in data set [1] (setting [4]) was 187.31 Å²; in data set [1] (setting [3]) it was 193.85 Å². For the same molecule, the “reversed-phase LC retention time” value in data set [2] (setting [4]) was determined as 11.6 min; in data set [2] (setting [3]), 12.2 min.

Consider `CC1(C)[C@@H](O)CC[C@]2(C)[C@H]3C(=O)C=C4[C@@H]5C[C@@](C)(C(=O)O)CC[C@]5(C)CC[C@@]4(C)[C@]3(C)CC[C@@H]12` [Enoxolone], for which the collision cross section is on record as 216.71 Å² in data set [1] (setting [4]) and 224.72 Å² in data set [1] (setting [3]). The “reversed-phase LC retention time” value worked out at 17.5 min in data set [2] (setting [4]) and 16.6 min in data set [2] (setting [3]).

As for `CCN1CCN(c2cc3c(cc2F)c(=O)c(C(=O)O)cn3C2CC2)CC1` [Enrofloxacin], the collision cross section in data set [1] (setting [4]) was 186.48 Å². Moreover, in data set [2] (setting [4]), the “reversed-phase LC retention time” value came out at 8.4 min.

Turning to `Fc1ccc(C2(Cn3cncn3)OC2c2ccccc2Cl)cc1` (stereo unspecified) [Epoxiconazole], the collision cross section in data set [1] (setting [4]) was 176.09 Å². Besides, in data set [2] (setting [4]), the “reversed-phase LC retention time” value came to 14.9 min.

Regarding `CCCCc1ncc(C(=O)O)n1Cc1ccc(C(=O)O)cc1` [Eprosartan acid], the collision cross section in data set [1] (setting [3]) was 178.16 Å². In addition, in data set [2] (setting [3]), the “reversed-phase LC retention time” value came to 7.27 min.
